Laboratory results reported in patent US7799763B2, “Muscle-strengthening drugs and anti-inflammatory drugs” (Daicho Kikaku Incorporated Company, priority 2002, dated 2010).

Key:
[1] = system: patients with walking difficulties, proctoptosia, backaches, limb pains; assay: Tablets of Example 4 administered once a day to aged patients with muscle disorders; format: in vivo, human; settings: single regular dose of drugs admixed with one of scymnol, isoflavone, and cholic acid
Excerpt: In Western medicine, it has been understood that proctoptosia and leg, lumbus and arm aches are attributable only to hematogenous disorders and resultant inflammation at local sites. […] Thus, it can be understood that these disorders are attributed to insufficient communication of brain commands to local sites and therefore the hematogenous disorders and onset of inflammation are problems caused by abnormal motions of muscles due to incomplete communication of brain commands.

adrenaline secretion = assay: Animal experiments using mice: secretomotory action on adrenaline (blood glucose levels); format: in vivo
Excerpt: No studies have been conducted on the efficacy of curcumin, zingerone, or shogaol on the stimulation of adrenaline secretion.

SMILES: C[C@H](CCC(=O)O)[C@H]1CC[C@H]2[C@@H]3[C@H](O)C[C@@H]4C[C@H](O)CC[C@]4(C)[C@H]3C[C@H](O)[C@]12C [cholic acid]
- effect on proctoptosia and leg, lumbus and arm aches [1]: not significantly ameliorated

SMILES: COc1cc(/C=C/C(=O)/C=C(O)/C=C/c2ccc(O)c(OC)c2)ccc1O [curcumin]
- blood glucose levels (secretomotory action on adrenaline) (adrenaline secretion): remarkably elevated

SMILES: C[C@H](CC[C@@H](O)C(CO)CO)C1CCC2C3C(C[C@H](O)[C@@]21C)[C@@]1(C)CC[C@@H](O)CC1C[C@H]3O (some centres unmarked) [scymnol, Scymnol]
- effect on proctoptosia and leg, lumbus and arm aches [1]: not significantly ameliorated

SMILES: CCCCC/C=C/C(=O)CCc1ccc(O)c(OC)c1 [shogaol, (6)-shogaol]
- blood glucose levels (secretomotory action on adrenaline) (adrenaline secretion): remarkably elevated

SMILES: COc1cc(CCC(C)=O)ccc1O [zingerone]
- blood glucose levels (secretomotory action on adrenaline) (adrenaline secretion): remarkably elevated
